Reference: paper PMC9178793, “A Direct Assay for Measuring the Activity and Inhibition of Coactivator-Associated Arginine Methyltransferase 1” (Biochemistry, 2022)
Read-outs that look alike come from different tables or passages of the source. *1 amine or outer side, *2 acyl side, *3 side chain or, on linkers, in order; H or OH if unused. Where a SMILES comes first, the peptide text is derived from it. [ ]: non-standard residue; d: D form. X1 = N=C(NCCC[C@H](N[*:1])C(=O)[*:2])NCCC[C@H]1O[C@@H](n2cnc3c(N)ncnc32)[C@H](O)[C@@H]1O

Experiments:
[1] = biological target: T1, CARM1 (Mus musculus, UniProt Q9WVG6); test: MRM LC-MS CARM1 enzyme inhibition assay (PABP1 456–466 peptide substrate, direct detection of aDMA product); format: biochemical; details: 286 nM CARM1, 12 μM PABP1 456–466, 10 μM AdoMet, 15 min preincubation, 2 h room temperature; duplicate data, ± SD
T1 construct: corresponding to the PRMT core (residues 130–497, mmCARM1_130–497) were amplified by PCR; GST (followed by TEV protease cleavage site) (N, cleaved yes); made in house; host or cells: Sf9 insect cells (baculovirus)
T1 sequence (Q9WVG6 130-497): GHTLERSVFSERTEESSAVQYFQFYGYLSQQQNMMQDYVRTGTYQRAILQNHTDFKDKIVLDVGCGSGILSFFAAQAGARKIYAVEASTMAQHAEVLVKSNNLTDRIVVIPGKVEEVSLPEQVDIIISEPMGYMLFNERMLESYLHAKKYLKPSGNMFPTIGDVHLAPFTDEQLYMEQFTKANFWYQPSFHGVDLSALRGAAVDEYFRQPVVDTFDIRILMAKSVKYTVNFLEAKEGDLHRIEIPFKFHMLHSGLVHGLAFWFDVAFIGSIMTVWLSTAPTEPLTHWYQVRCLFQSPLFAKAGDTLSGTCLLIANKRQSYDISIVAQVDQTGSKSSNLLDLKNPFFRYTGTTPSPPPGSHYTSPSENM
Source text: The positive clones were confirmed by sequencing (GATC). The sequences were subcloned in a pDEST20 vector using an LR reaction. The resulting recombinant protein is harboring an amino-terminal glutathione S-transferase (GST) tag followed by a Tobacco etch virus (TEV) protease cleavage site. […] Bacmid DNA purified from recombination-positive white colonies was transfected into Sf9 cells using the Lipofectin reagent (Invitrogen). Viruses were harvested 10 days after transfection. Sf9 cells were grown at 300 K in suspension culture in Grace medium (Gibco) using Bellco spinner flasks. sf9 cell culture (1 L, 0.8 × 10^6 cells·mL^-1) was infected with recombinant […]1 virus with an infection multiplicity of 1. The cells were harvested 48 h post-infection. Cell lysis was performed by sonication in 50 mL of buffer A [50 mM Tris-HCl pH 8.0, 250 mM NaCl, 5% glycerol, 5 mM TCEP, 0.01% NP40 and anti-proteases (Roche, Complete, EDTA-free)], and cellular debris was sedimented by centrifugation of the lysate at 40 000g for 30 min. The supernatant was incubated overnight at 277 K with 2 mL of glutathione Sepharose resin (GE Healthcare). After a short centrifugation, the supernatants were discarded, and the beads were poured in an Econo-column (Bio-Rad). After two washing steps with 10 mL of buffer A, 2 mL of buffer A supplemented with in-house produced TEV protease was applied to the columns and digestion was performed for 4 h at 303 K with gentle mixing. The digest was concentrated with an Amicon Ultra 10K (Milipore), loaded on a gel-filtration column (HiLoad 16/60 Superdex S200, GE Healthcare), and eluted at 1 mL·min^-1 with buffer B [20 mM Tris-HCl pH 8.0, 100 mM NaCl, 1 mM TCEP] using an ÄKTA Purifier device (GE Healthcare). Fractions containing […]1_130-497 were pooled and concentrated to 7.75 mg·mL^-1. […] The reaction was subsequently quenched by the addition of 30 μL of the reaction mixture to 10 μL of a 0.1% formic acid solution (pH 2). […] The supernatant (60 μL) was transferred to a new 96-well plate and analyzed. […] The products were eluted with a water-acetonitrile gradient moving from 20 to 92% acetonitrile (0.1% FA) over 6 min at a flow rate of 0.5 mL·min^-1. The injection volume was 10 μL. The ionization source was operated in positive mode using an interface voltage of 4.5 kV, nebulizing gas at 1.5 L/min, drying gas at 15 L/min, and a desolvation line (DL) temperature of 250 °C. The MRM parameter optimization was performed using both the analyte (PABP1^456-466-R^460-aDMA) and hexadeuterated internal standard (PABP1^456-466-R^460-d6-aDMA). The results of this optimization, which include precursor ion scanning, collision energy, and Q1 and Q3 scanning, are summarized in Table 1. […] For commercially available inhibitors that were not soluble in water, stock solutions were prepared in DMSO and diluted to a final DMSO concentration of <1% in the assay mixture. […] The mixture was incubated for 2 h at room temperature, and the reaction was subsequently quenched by the addition of 30 μL of the reaction mixture to 10 μL of a 0.1% formic acid solution (pH 2). […] The supernatant (60 μL) was transferred to a new 96-well plate and analyzed by LC-MS as described above. Negative controls (no enzyme) and positive controls (no inhibitor) were included in each plate. For quantification of the methylated product, the area ratio of analyte to internal standard was calculated and quantified using the linearity line obtained with the reference standards. […] To obtain kcat with units of s^-1, the maximal velocity (Vmax) is divided by 3600. [drawing 3] 3 The percentage inhibition was plotted as a function of inhibitor concentration and fit using a nonlinear regression analysis of the sigmoidal dose-response curve generated using the normalized data and a variable slope following eq 4. [drawing 4] 4 where Y is the percent inhibition, X is the logarithmic concentration of the inhibitors, and Hill Slope is the slope factor or Hill coefficient. […]

[2] = biological target: T2, CARM1 (Homo sapiens, UniProt Q86X55); test: commercially available chemiluminescent antibody-based ELISA kit (histone H3-derived peptide, aDMA at H3-R17); format: biochemical
T2 sequence (Q86X55 1-608): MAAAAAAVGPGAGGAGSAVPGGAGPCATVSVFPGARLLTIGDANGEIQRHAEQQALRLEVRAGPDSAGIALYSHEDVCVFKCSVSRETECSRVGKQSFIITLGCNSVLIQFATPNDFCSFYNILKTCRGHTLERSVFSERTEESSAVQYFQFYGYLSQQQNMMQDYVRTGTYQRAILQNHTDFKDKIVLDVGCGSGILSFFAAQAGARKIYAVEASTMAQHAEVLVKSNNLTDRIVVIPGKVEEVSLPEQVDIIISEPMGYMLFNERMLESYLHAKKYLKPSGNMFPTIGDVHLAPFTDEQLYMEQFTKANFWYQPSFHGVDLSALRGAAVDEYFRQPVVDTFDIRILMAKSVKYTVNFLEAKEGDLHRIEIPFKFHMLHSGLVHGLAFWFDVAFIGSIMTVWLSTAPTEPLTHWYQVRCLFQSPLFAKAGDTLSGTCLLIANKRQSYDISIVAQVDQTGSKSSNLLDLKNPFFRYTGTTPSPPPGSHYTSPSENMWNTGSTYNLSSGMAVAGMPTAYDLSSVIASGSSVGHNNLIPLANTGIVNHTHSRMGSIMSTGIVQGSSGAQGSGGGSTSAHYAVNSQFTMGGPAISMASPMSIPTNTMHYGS
Experimental: We next applied the assay in assessing the inhibition of CARM1 by a number of known inhibitors of varying potencies including AdoHcy (1), MS023 (2), MS049 (3), TP064 (4), and a series of recently reported peptidomimetic CARM1 inhibitors (5–9) (Figure 3).[20],[32]−[35] For the purpose of generating IC50 curves for these inhibitors, concentration ranges were set according to previously reported IC50 values. The inhibitors were first incubated with CARM1 for 15 min at room temperature before the enzyme reaction was initiated by the addition of the AdoMet/PABP1^456–466 substrate mixture. On the basis of the residual CARM1 activity measured, inhibition curves were generated and the IC50 values were determined (Table 3). To evaluate the suitability of the method for the determination of CARM1 inhibition, the IC50 values were compared with those obtained using a commercially available chemiluminescent ELISA kit. […] In addition, the peptide substrate and detection method employed in the ELISA kit are inherently different. The kit employs a histone H3-derived peptide that is covalently linked to the bottom of the well plate, and as such, no substrate concentration is given. Product formation in turn is detected using specific antibodies that recognize aDMA formation at arginine residue H3-R^17.

[3] = biological target: T2, CARM1; details: chemiluminescent ELISA kit, H3-derived peptide, 1 μM AdoMet; cited from earlier work

Compound | IC50 [1] [nM] | IC50 [2] [nM] | IC50 [3] [nM]
CC(=O)N1CCC[C@H]1C(=O)N[C@@H](CCCNC(=N)NCCC[C@H]1O[C@@H](n2cnc3c(N)ncnc32)[C@H](O)[C@@H]1O)C(=O)N[C@@H](CCCCN)C(=O)N[C@@H](CCC(N)=O)C(N)=O [Compound 8] | 1460 ± 21 | – | –
CC(=O)N[C@@H](CCCCN)C(=O)N[C@@H](C)C(=O)N1CCC[C@H]1C(=O)N[C@@H](CCCNC(=N)NCCC[C@H]1O[C@@H](n2cnc3c(N)ncnc32)[C@H](O)[C@@H]1O)C(=O)N[C@@H](CCCCN)C(=O)N[C@@H](CCC(N)=O)C(=O)N[C@@H](CC(C)C)C(=O)N[C@@H](C)C(N)=O [Compound 6] (Ac-KAP[X1]KQLA-NH2) | 403 ± 28 | – | –
CC(=O)N[C@@H](CO)C(=O)N[C@H](C(=O)NCC(=O)NCC(=O)N[C@@H](CCCCN)C(=O)N[C@@H](C)C(=O)N1CCC[C@H]1C(=O)N[C@@H](CCCNC(=N)NCCC[C@H]1O[C@@H](n2cnc3c(N)ncnc32)[C@H](O)[C@@H]1O)C(=O)N[C@@H](CCCCN)C(=O)N[C@@H](CCC(N)=O)C(=O)N[C@@H](CC(C)C)C(=O)N[C@@H](C)C(=O)N[C@H](C(=O)N[C@@H](CCCCN)C(=O)N[C@@H](C)C(=O)N[C@@H](C)C(N)=O)[C@@H](C)O)[C@@H](C)O [Compound 5] (Ac-STGGKAP[X1]KQLATKAA-NH2) | 770 ± 98 | – | –
CC(=O)N[C@@H](C)C(=O)N1CCC[C@H]1C(=O)N[C@@H](CCCNC(=N)NCCC[C@H]1O[C@@H](n2cnc3c(N)ncnc32)[C@H](O)[C@@H]1O)C(=O)N[C@@H](CCCCN)C(=O)N[C@@H](CCC(N)=O)C(=O)N[C@@H](CC(C)C)C(N)=O [Compound 7] (Ac-AP[X1]KQL-NH2) | 617 ± 57 | – | –
Nc1ncnc2c1ncn2[C@@H]1O[C@H](CSCC[C@H](N)C(=O)O)[C@@H](O)[C@H]1O [Compound 1, S-adenosyl-L-homocysteine, reference compound] | 873 ± 339 | – | –

The next molecules have a lower IC50 [1] than those just listed; values first:

IC50 [1] [nM] | IC50 [2] [nM] | Compound | IC50 [3] [nM]
162 ± 10 | – | CNCCN1CCC(c2cc(CN(C)C(=O)c3cccc(Oc4ccccc4)c3)ccn2)CC1 [Compound 4, reference compound] | –
327 ± 34 | 101 ± 11 | CC(C)Oc1ccc(-c2c[nH]cc2CN(C)CCN)cc1 [Compound 2, reference compound] | –
212 ± 25 | – | CSCC[C@H](NC(=O)[C@@H](NC(=O)[C@H](CO)NC(=O)[C@H](Cc1ccccc1)NC(=O)[C@@H]1CCCN1C(=O)[C@@H]1CCCN1C(=O)[C@H](CCCNC(=N)NCCC[C@H]1O[C@@H](n2cnc3c(N)ncnc32)[C@H](O)[C@@H]1O)NC(=O)[C@@H]1CCCN1C(=O)[C@H](C)NC(=O)[C@H](C)NC(=O)[C@@H]1CCCN1C(C)=O)[C@@H](C)O)C(N)=O [Compound 9] (Ac-PAAP[X1]PPFSTM-NH2) | 90 ± 16
